# From PubChem BioAssay AID1963846 (Molecular Pharmacology Branch, DTP, NCI, 2024)
# Test system: 454973-116-R2-J3-PDC complex spheroid viability
# Experiment: Anticancer human tumor 454973-116-R2-J3-PDC patient-derived pancreatic carcinoma cell line growth inhibition [POLQ]
# Conditions: for IC50: curve of first compound; for viability, T/C: stronger effect = lower value
# In short: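 Growth inhibition in 3D: complex spheroids (tumor PDC, HUVEC, MSC) treated with POLQ inhibitor combinations; where Cmax unknown, highest tested concentration 10 microM, except SN-38 at 1 microM.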
# [1] = second compound 0.0316 µM, first compound 0.0316 µM
# [2] = second compound 0.0316 µM, first compound 0.1 µM
# [3] = second compound 0.0316 µM, first compound 0.316 µM
# [4] = second compound 0.0316 µM, first compound 1 µM
# [5] = second compound 0.0316 µM, first compound 3.16 µM
# [6] = second compound 0.0316 µM, first compound 10 µM
# [7] = second compound 0.1 µM, first compound 0.0316 µM
# [8] = second compound 0.1 µM, first compound 0.1 µM
# [9] = second compound 0.1 µM, first compound 0.316 µM
# [10] = second compound 0.1 µM, first compound 1 µM
# [11] = second compound 0.1 µM, first compound 3.16 µM
# [12] = second compound 0.1 µM, first compound 10 µM
# [13] = second compound 0.316 µM, first compound 0.0316 µM
# [14] = second compound 0.316 µM, first compound 0.1 µM
# [15] = second compound 0.316 µM, first compound 0.316 µM
# [16] = second compound 0.316 µM, first compound 1 µM
# [17] = second compound 0.316 µM, first compound 3.16 µM
# [18] = second compound 0.316 µM, first compound 10 µM
# [19] = second compound 1 µM, first compound 0.0316 µM
# [20] = second compound 1 µM, first compound 0.1 µM
# [21] = second compound 1 µM, first compound 0.316 µM
# [22] = second compound 1 µM, first compound 1 µM
# [23] = second compound 1 µM, first compound 3.16 µM
# [24] = second compound 1 µM, first compound 10 µM
# [25] = second compound 3.16 µM, first compound 0.0316 µM
# [26] = second compound 3.16 µM, first compound 0.1 µM
# [27] = second compound 3.16 µM, first compound 0.316 µM
# [28] = second compound 3.16 µM, first compound 1 µM
# [29] = second compound 3.16 µM, first compound 3.16 µM
# [30] = second compound 3.16 µM, first compound 10 µM
# [31] = second compound 10 µM, first compound 0.0316 µM
# [32] = second compound 10 µM, first compound 0.1 µM
# [33] = second compound 10 µM, first compound 0.316 µM
# [34] = second compound 10 µM, first compound 1 µM
# [35] = second compound 10 µM, first compound 3.16 µM
# [36] = second compound 10 µM, first compound 10 µM
# 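Further: spheroids exposed to drugs for seven days before measurement.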
# 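Wherever viability, T/C is given: percent viability relative to DMSO vehicle control wells taken as 100%.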
smiles,measurement,setting,value
C=CC(=O)N1CCN(c2nc(=O)n(-c3c(C)ccnc3C(C)C)c3nc(-c4c(O)cccc4F)c(F)cc23)C(C)C1 (stereo not drawn) + Cc1cccc(N(C)C(=O)C2C(O)CCN2c2nc(C)cc(C(F)(F)F)c2C#N)c1,IC50,second compound 0.0316 µM,> 10 µM
same,IC50,second compound 0.1 µM,> 10 µM
same,IC50,second compound 0.316 µM,> 10 µM
same,IC50,second compound 1 µM,> 10 µM
same,IC50,second compound 3.16 µM,> 10 µM
same,IC50,second compound 10 µM,> 10 µM
same,"viability, T/C",[1],100%
same,"viability, T/C",[2],99.5%
same,"viability, T/C",[3],98.7%
same,"viability, T/C",[4],115%
same,"viability, T/C",[5],106%
same,"viability, T/C",[6],109%
same,"viability, T/C",[7],96.9%
same,"viability, T/C",[8],101%
same,"viability, T/C",[9],107%
same,"viability, T/C",[10],107%
same,"viability, T/C",[11],110%
same,"viability, T/C",[12],115%
same,"viability, T/C",[13],101%
same,"viability, T/C",[14],107%
same,"viability, T/C",[15],108%
same,"viability, T/C",[16],106%
same,"viability, T/C",[17],108%
same,"viability, T/C",[18],111%
same,"viability, T/C",[19],108%
same,"viability, T/C",[20],102%
same,"viability, T/C",[21],115%
same,"viability, T/C",[22],105%
same,"viability, T/C",[23],110%
same,"viability, T/C",[24],110%
same,"viability, T/C",[25],107%
same,"viability, T/C",[26],111%
same,"viability, T/C",[27],103%
same,"viability, T/C",[28],118%
same,"viability, T/C",[29],112%
same,"viability, T/C",[30],108%
same,"viability, T/C",[31],115%
same,"viability, T/C",[32],102%
same,"viability, T/C",[33],109%
same,"viability, T/C",[34],113%
same,"viability, T/C",[35],111%
same,"viability, T/C",[36],109%
CC(C)n1c(=O)n(C)c2cnc3cc(F)c(-c4ccc(OCCCN5CCCCC5)nc4)cc3c21 + Cc1cccc(N(C)C(=O)C2C(O)CCN2c2nc(C)cc(C(F)(F)F)c2C#N)c1,IC50,second compound 0.0316 µM,> 10 µM
same,IC50,second compound 0.1 µM,> 10 µM
same,IC50,second compound 0.316 µM,> 10 µM
same,IC50,second compound 1 µM,> 10 µM
same,IC50,second compound 3.16 µM,> 10 µM
same,IC50,second compound 10 µM,> 10 µM
same,"viability, T/C",[1],97.4%
same,"viability, T/C",[2],96.4%
same,"viability, T/C",[3],103%
same,"viability, T/C",[4],99.7%
same,"viability, T/C",[5],105%
same,"viability, T/C",[6],77.2%
same,"viability, T/C",[7],97.3%
same,"viability, T/C",[8],105%
same,"viability, T/C",[9],101%
same,"viability, T/C",[10],113%
same,"viability, T/C",[11],107%
same,"viability, T/C",[12],85%
same,"viability, T/C",[13],105%
same,"viability, T/C",[14],110%
same,"viability, T/C",[15],114%
same,"viability, T/C",[16],104%
same,"viability, T/C",[17],97.1%
same,"viability, T/C",[18],86.8%
same,"viability, T/C",[19],103%
same,"viability, T/C",[20],105%
same,"viability, T/C",[21],110%
same,"viability, T/C",[22],116%
same,"viability, T/C",[23],104%
same,"viability, T/C",[24],87.3%
same,"viability, T/C",[25],109%
same,"viability, T/C",[26],106%
same,"viability, T/C",[27],108%
same,"viability, T/C",[28],99.3%
same,"viability, T/C",[29],101%
same,"viability, T/C",[30],86%
same,"viability, T/C",[31],114%
same,"viability, T/C",[32],110%
same,"viability, T/C",[33],96.6%
same,"viability, T/C",[34],98.6%
same,"viability, T/C",[35],97.3%
same,"viability, T/C",[36],79%
COc1cc2cc(C(=O)CCC(=O)O)sc2cc1OC + Cc1cccc(N(C)C(=O)C2C(O)CCN2c2nc(C)cc(C(F)(F)F)c2C#N)c1,IC50,second compound 0.0316 µM,> 10 µM
same,IC50,second compound 0.1 µM,> 10 µM
same,IC50,second compound 0.316 µM,> 10 µM
same,IC50,second compound 1 µM,> 10 µM
same,IC50,second compound 3.16 µM,> 10 µM
same,IC50,second compound 10 µM,> 10 µM
same,"viability, T/C",[1],103%
same,"viability, T/C",[2],107%
same,"viability, T/C",[3],107%
same,"viability, T/C",[4],102%
same,"viability, T/C",[5],106%
same,"viability, T/C",[6],97%
same,"viability, T/C",[7],105%
same,"viability, T/C",[8],98.1%
same,"viability, T/C",[9],95.7%
same,"viability, T/C",[10],98%
same,"viability, T/C",[11],92.6%
same,"viability, T/C",[12],88.7%
same,"viability, T/C",[13],93.8%
same,"viability, T/C",[14],104%
same,"viability, T/C",[15],96.2%
same,"viability, T/C",[16],110%
same,"viability, T/C",[17],109%
same,"viability, T/C",[18],93.7%
same,"viability, T/C",[19],105%
same,"viability, T/C",[20],102%
same,"viability, T/C",[21],99%
same,"viability, T/C",[22],102%
same,"viability, T/C",[23],105%
same,"viability, T/C",[24],93.7%
same,"viability, T/C",[25],103%
same,"viability, T/C",[26],97.9%
same,"viability, T/C",[27],96.5%
same,"viability, T/C",[28],100%
same,"viability, T/C",[29],98.9%
same,"viability, T/C",[30],95.5%
same,"viability, T/C",[31],97.7%
same,"viability, T/C",[32],98.8%
same,"viability, T/C",[33],94%
same,"viability, T/C",[34],111%
same,"viability, T/C",[35],102%
same,"viability, T/C",[36],90.8%
COc1ccc([C@@H](O)c2cc(-c3ncnc4cc(N5CCOCC5)ccc34)c(F)cc2Cl)nn1 + Cc1cccc(N(C)C(=O)C2C(O)CCN2c2nc(C)cc(C(F)(F)F)c2C#N)c1,IC50,second compound 0.0316 µM,> 10 µM
same,IC50,second compound 0.1 µM,> 10 µM
same,IC50,second compound 0.316 µM,> 10 µM
same,IC50,second compound 1 µM,> 10 µM
same,IC50,second compound 3.16 µM,> 10 µM
same,IC50,second compound 10 µM,> 10 µM
same,"viability, T/C",[1],105%
same,"viability, T/C",[2],114%
same,"viability, T/C",[3],101%
same,"viability, T/C",[4],92.5%
same,"viability, T/C",[5],70.2%
same,"viability, T/C",[6],56.4%
same,"viability, T/C",[7],104%
same,"viability, T/C",[8],99%
same,"viability, T/C",[9],102%
same,"viability, T/C",[10],95.5%
same,"viability, T/C",[11],71.1%
same,"viability, T/C",[12],58%
same,"viability, T/C",[13],107%
same,"viability, T/C",[14],99.8%
same,"viability, T/C",[15],103%
same,"viability, T/C",[16],91.8%
same,"viability, T/C",[17],76.2%
same,"viability, T/C",[18],55%
same,"viability, T/C",[19],109%
same,"viability, T/C",[20],105%
same,"viability, T/C",[21],107%
same,"viability, T/C",[22],87.1%
same,"viability, T/C",[23],71.5%
same,"viability, T/C",[24],53.3%
same,"viability, T/C",[25],112%
same,"viability, T/C",[26],101%
same,"viability, T/C",[27],108%
same,"viability, T/C",[28],87.7%
same,"viability, T/C",[29],74.7%
same,"viability, T/C",[30],58.4%
same,"viability, T/C",[31],112%
same,"viability, T/C",[32],99.9%
same,"viability, T/C",[33],99.3%
same,"viability, T/C",[34],84.5%
same,"viability, T/C",[35],64.7%
same,"viability, T/C",[36],59.8%
